{"source": "paper PMC12373846", "about": "“Hemoglobin as a pseudoperoxidase and drug target for oxidative stress-related diseases” (Signal Transduction and Targeted Therapy, 2025)", "assay_type_in_all_cases": "in vivo, mouse", "key": {"[1]": {"test_system": "C57BL/6J mice", "test": "PhenoMaster respiration and metabolic analysis", "design": "energy expenditure (Fig. S8b) / total food consumption (Fig. S8c) / total drink consumption (Fig. S8d) / oxygen consumption (stats entry 2j): unit not given here", "protocol": "For respiration and metabolic analysis, PhenoMaster (TSE Systems, Germany) was employed. All C57BL/6J mice aged 8–10 weeks underwent initial chamber habituation and gas calibration on day 0. Starting on day 3, the mice were administered KDS12025 dissolved in water at dosages of 0.1, 1, and 10 mg/kg/day (ad libitum drinking water). Respiratory and metabolic measurements, including oxygen consumption, carbon dioxide production, and the respiratory exchange ratio (RER, calculated as VCO2/VO2), as well as food and drink intake and energy expenditure, were conducted from day 4. The recording ends on day 8 with data collection."}, "[2]": {"test_system": "APP/PS1 mice", "test": "Novel place recognition test, APP/PS1 mice", "protocol": "For an animal model of AD, both sexes of 10- to 18-month-old APP/PS1 mice were maintained and used as previously described.[76],[77] To test the effects of novel H2O2-decomposing enhancers in the AD model, the mice were treated by i.p. injection with KDS12008 (3 mg/kg/day), KDS12017 (3 mg/kg/day), or KDS12025 (3 or 10 mg/kg/day) once per day for 1 or 2 weeks, depending on the experimental protocol. All drugs were dissolved in 200 μl of saline, and the amount of each drug was calculated on the basis of the weight (kg) of the mouse. Moreover, KDS12025 (3 mg/kg/day) was orally administered to the AD model for 2 weeks ad libitum.\nBefore the novel place recognition (NPR) test, the mice were subjected to sufficient handling and were concurrently habituated to an open field test (OFT) in a square chamber (40 × 40 × 40 cm). After habituation, the mice were placed in the open field with two identical objects positioned in the first and second quadrants of the cage. The mice were allowed to explore the objects freely for 10 min and then returned to their home cages for 1 h. To test spatial recognition memory, one of the two identical objects was placed in a novel place (quadrant), and the mice were re-entered into the open field chamber for 10 min. The discrimination index (DI) was calculated as the percentage of time spent on the novel place over the total time spent on both the novel and the familiar place. Frequencies were quantified via EthoVision XT software (Noldus, Netherlands).\nThe mice were deeply anesthetized with vaporized 1% isoflurane and placed into stereotaxic frames (RWD Life Science, China). Following an incision on the midline of the scalp, a hole was drilled into the skull above the hippocampus. AAV-GFAP104-GFP or AAV-GFAP104-DTR-GFP was bilaterally microinjected into the hippocampal CA1 region (AP, −2.0 mm; ML, ±1.5 mm; DV, −1.65 mm from the bregma). Diphtheria toxin (2 mg/ml) was administered for 16 days as previously described.[77] For shRNA knockdown, AAV-pSicoR-Hbβ-shRNA-mCherry or AAV-pSicoR-Sc-shRNA-mCherry was microinjected into the same coordinate system. A total of 0.8 µl of the virus was injected via a syringe pump (KD Scientific, USA). The injection procedures were implemented before 5 weeks of the experiments. For cell type-specific knockdown, AAV-pSico-Hbβ-shRNA-GFP or AAV-pSico-Sc-shRNA-GFP was combined with either AAV-CaMKII-Cre-mCherry for neuronal targeting or AAV-GFAP-Cre-mCherry for astrocyte targeting. The viruses were bilaterally injected into the hippocampus and substantia nigra via the same stereotaxic coordinates and injection procedures. All viruses used in this study were produced at the Institute for Basic Science virus facility (IBS virus facility, Korea). To investigate the effects of 0.1 mg/kg/day KDS12025, GiD mice were injected with diphtheria toxin (2 mg/ml) daily for 16 days. Concurrently, KDS12025 was administered ad libitum (0.1 mg/kg/day) during the same period."}, "[3]": {"test_system": "aged C57BL/6J mice", "test": "Survival of aging mice", "protocol": "Aged 1-year-old C57BL/6J animals were purchased from Janvier Labs (France) and quarantined in the IBS Animal Facility for 2 weeks before the experiment. The animals were weighed, and their water consumption (in grams) was monitored for 3 days before the appropriate drug concentration was calculated for each dose group. The animals were randomly assigned to the drug/control and dose groups. […] The drug concentration (in water) was modified on the basis of changes in animal weight and corresponding water consumption every 3 months. Basal body temperature and body weight were monitored every 2 weeks. The care and handling of the animals were performed in accordance with the guidelines of the Institutional Animal Care and Use Committee of IBS (Daejeon, South Korea)."}}}
{"smiles": "CNc1ccc(NCCc2ccccc2OC)cc1.Cl", "note": "[KDS12025, N^1-(2-methoxyphenethyl)-N^4-methylbenzene-1,4-diamine hydrochloride salt]", "values": [{"measurement": "carbon dioxide production (stats entry 2k)", "setting": "[1]; 0.1mpk, dark", "value": 3345}, {"measurement": "energy expenditure (Fig. S8b)", "setting": "[1]; 0.1mpk, dark", "value": "22.37±1.215"}, {"measurement": "oxygen consumption (stats entry 2j)", "setting": "[1]; 0.1mpk, dark", "value": 4228}, {"measurement": "respiratory exchange ratio (stats entry 2l)", "setting": "[1]; 0.1mpk, dark", "value": 0.849}, {"measurement": "total drink consumption (Fig. S8d)", "setting": "[1]; 0.1mpk, dark", "value": "0.1272±0.009"}, {"measurement": "total food consumption (Fig. S8c)", "setting": "[1]; 0.1mpk, dark", "value": "0.1543±0.018"}, {"measurement": "carbon dioxide production (stats entry 2k)", "setting": "[1]; 0.1mpk, full day", "value": 3292}, {"measurement": "energy expenditure (Fig. S8b)", "setting": "[1]; 0.1mpk, full day", "value": "22.21±1.751"}, {"measurement": "oxygen consumption (stats entry 2j)", "setting": "[1]; 0.1mpk, full day", "value": 4161}, {"measurement": "respiratory exchange ratio (stats entry 2l)", "setting": "[1]; 0.1mpk, full day", "value": 0.857}, {"measurement": "total drink consumption (Fig. S8d)", "setting": "[1]; 0.1mpk, full day", "value": "0.108±0.005"}, {"measurement": "total food consumption (Fig. S8c)", "setting": "[1]; 0.1mpk, full day", "value": "0.126±0.0123"}, {"measurement": "carbon dioxide production (stats entry 2k)", "setting": "[1]; 0.1mpk, light", "value": 3065}, {"measurement": "oxygen consumption (stats entry 2j)", "setting": "[1]; 0.1mpk, light", "value": 3923}, {"measurement": "respiratory exchange ratio (stats entry 2l)", "setting": "[1]; 0.1mpk, light", "value": 0.833}, {"measurement": "carbon dioxide production (stats entry 2k)", "setting": "[1]; 1mpk, dark", "value": 3167}, {"measurement": "energy expenditure (Fig. S8b)", "setting": "[1]; 1mpk, dark", "value": "21.29±0.7258"}, {"measurement": "oxygen consumption (stats entry 2j)", "setting": "[1]; 1mpk, dark", "value": 4063}, {"measurement": "respiratory exchange ratio (stats entry 2l)", "setting": "[1]; 1mpk, dark", "value": 0.891}, {"measurement": "total drink consumption (Fig. S8d)", "setting": "[1]; 1mpk, dark", "value": "0.1220±0.0208"}, {"measurement": "total food consumption (Fig. S8c)", "setting": "[1]; 1mpk, dark", "value": "0.1761±0.0164"}, {"measurement": "carbon dioxide production (stats entry 2k)", "setting": "[1]; 1mpk, full day", "value": 3075}, {"measurement": "energy expenditure (Fig. S8b)", "setting": "[1]; 1mpk, full day", "value": "21.26±0.07088"}, {"measurement": "oxygen consumption (stats entry 2j)", "setting": "[1]; 1mpk, full day", "value": 3871}, {"measurement": "respiratory exchange ratio (stats entry 2l)", "setting": "[1]; 1mpk, full day", "value": 0.883}, {"measurement": "total drink consumption (Fig. S8d)", "setting": "[1]; 1mpk, full day", "value": "0.0902±0.0248"}, {"measurement": "total food consumption (Fig. S8c)", "setting": "[1]; 1mpk, full day", "value": "0.166±0.03508"}, {"measurement": "carbon dioxide production (stats entry 2k)", "setting": "[1]; 1mpk, light", "value": 2916}, {"measurement": "energy expenditure (Fig. S8b)", "setting": "[1]; 1mpk, light", "value": "19.95±0.3562"}, {"measurement": "oxygen consumption (stats entry 2j)", "setting": "[1]; 1mpk, light", "value": 3584}, {"measurement": "respiratory exchange ratio (stats entry 2l)", "setting": "[1]; 1mpk, light", "value": 0.860}, {"measurement": "total drink consumption (Fig. S8d)", "setting": "[1]; 1mpk, light", "value": "0.0790±0.0149"}, {"measurement": "total food consumption (Fig. S8c)", "setting": "[1]; 1mpk, light", "value": "0.1032±0.009"}, {"measurement": "carbon dioxide production (stats entry 2k)", "setting": "[1]; 10mpk, dark", "value": 3344}, {"measurement": "energy expenditure (Fig. S8b)", "setting": "[1]; 10mpk, dark", "value": "20.73±0.9735"}, {"measurement": "oxygen consumption (stats entry 2j)", "setting": "[1]; 10mpk, dark", "value": 4216}, {"measurement": "respiratory exchange ratio (stats entry 2l)", "setting": "[1]; 10mpk, dark", "value": 0.877}, {"measurement": "total drink consumption (Fig. S8d)", "setting": "[1]; 10mpk, dark", "value": "0.1041±0.0394"}, {"measurement": "total food consumption (Fig. S8c)", "setting": "[1]; 10mpk, dark", "value": "0.1572±0.01881"}, {"measurement": "carbon dioxide production (stats entry 2k)", "setting": "[1]; 10mpk, full day", "value": 3120}, {"measurement": "energy expenditure (Fig. S8b)", "setting": "[1]; 10mpk, full day", "value": "19.14±0.6082"}, {"measurement": "oxygen consumption (stats entry 2j)", "setting": "[1]; 10mpk, full day", "value": 3593}, {"measurement": "respiratory exchange ratio (stats entry 2l)", "setting": "[1]; 10mpk, full day", "value": 0.857}, {"measurement": "total drink consumption (Fig. S8d)", "setting": "[1]; 10mpk, full day", "value": "0.0776±0.01206"}, {"measurement": "total food consumption (Fig. S8c)", "setting": "[1]; 10mpk, full day", "value": "0.1288±0.0108"}, {"measurement": "carbon dioxide production (stats entry 2k)", "setting": "[1]; 10mpk, light", "value": 2900}, {"measurement": "energy expenditure (Fig. S8b)", "setting": "[1]; 10mpk, light", "value": "18.91±1.057"}, {"measurement": "oxygen consumption (stats entry 2j)", "setting": "[1]; 10mpk, light", "value": 3753}, {"measurement": "respiratory exchange ratio (stats entry 2l)", "setting": "[1]; 10mpk, light", "value": 0.831}, {"measurement": "total drink consumption (Fig. S8d)", "setting": "[1]; 10mpk, light", "value": "0.05856±0.0075"}, {"measurement": "total food consumption (Fig. S8c)", "setting": "[1]; 10mpk, light", "value": "0.09464±0.0095"}, {"measurement": "NPR discrimination index", "setting": "[2]; APP+KDS12025 3 mg/kg/day ad libitum, Fig. 5n", "value": "WT (0.2560±0.07604, n=6), APP (-0.0956±0.05233, n=5), APP+KDS12025 (ad libitum) (0.2057±0.04843, n=6) One-way ANOVA with Tukey's multiple comparisons test, F(2,14) = 8.997, p = 0.003 WT vs. APP, p = 0.004; WT vs. APP+KDS12025 (ad libitum), p = 0.82; APP vs. APP+KDS12025 (ad libitum), p = 0.01"}, {"measurement": "NPR discrimination index", "setting": "[2]; APP+ScRNA+KDS12025, Fig. 6g", "value": "0.46±0.09"}, {"measurement": "NPR discrimination index", "setting": "[2]; APP+shHbβ+KDS12025, Fig. 6g", "value": "-0.06±0.082"}, {"measurement": "NPR discrimination index", "setting": "[2]; APP+shHbβ::CaMKII+KDS12025, Fig. 6l", "value": "0.24±0.08"}, {"measurement": "NPR discrimination index", "setting": "[2]; APP+shHbβ::GFAP+KDS12025, Fig. 6l", "value": "-0.04±0.059"}, {"measurement": "increase of median survival", "setting": "[3]; 0.1 and 1 mg/kg/day ad libitum from 14 months", "value": "~ 14%"}, {"measurement": "adverse effects during chronic administration", "setting": "[3]; 22-month administration, 0.1 and 1 mg/kg/day", "value": "no apparent adverse effects were observed"}, {"measurement": "female mice surviving at 31 months", "setting": "[3]; KDS12025 groups, when all control mice had died", "value": 46.7, "unit": "%"}]}
